Experimental data as given in patent EP1946778A1, “Active substance combination for the treatment of diabetes” (Laboratorios del Dr. Esteve S.A., priority 2007, dated 2008).

Columns and labels:
[1] = Plasma glycerol and triacylglycerol assay, female DIO Wistar rats (COMPOUND C); type: in vivo; settings: 30 mg/kg po once daily for 28 days
Experimental: (§1) The experiment was performed on female Wistar rats (originally in the weight range 250-300g). Animals were maintained on a reverse phase light-dark cycle (lights off for 8 h from 09.30-17.30 h) during which time the room was illuminated by red light. Animals had free access to powdered high fat diet (VRF1 plus 20% lard), ground chocolate, ground peanuts and tap water at all times. The three different diets were contained in separate glass feeding jars with aluminium lids with a 3-4 cm hole cut in it to allow access to the food. Animals were housed in pairs for twelve weeks for the induction of obesity. Animals were then housed singly in polypropylene cages with wire grid floors to enable the food intake of each rat to be recorded. Polypropylene trays with cage pads were placed beneath each cage to detect any food spillage. Animals were accustomed to these new conditions (individual housing and the wire-grid floor cages) for at least 14 days before the start of the baseline readings. […]
Plasma triacylglycerol was determined by modification of a discrete assay kit (Sigma Triglyceride determination kit, Cat No. TR0100) to a 96-well format. […]
A 2.5 mg/ml triolein equivalent glycerol standard was obtained from Sigma. […] Optical density readings were then transferred to GraphPad Prism and unknown values extrapolated from a linear regression fit to the standard curve. […]

[2] = Plasma leptin assay, female DIO Wistar rats (COMPOUND C); type: in vivo; settings: 30 mg/kg po once daily for 28 days
Experimental: as §1
Plasma leptin concentration was determined using Assay Designs rat leptin enzyme immunometric assay kits (Cat No. 900-015) according to the manufacturer's regular protocol. […] Optical density at 450 nm was determined using a Molecular Devices VERSAmax tunable microplate reader and readings transferred to GraphPad Prism. […]

[3] = Carcass composition (water, fat, protein, ash), female DIO Wistar rats (COMPOUND C); type: in vivo; settings: 30 mg/kg po once daily for 28 days
Experimental: (§2) The experiment was performed on female Wistar rats (originally in the weight range 250-300g). Animals were maintained on a reverse phase light-dark cycle (lights off for 8 h from 09.30-17.30 h) during which time the room was illuminated by red light. Animals had free access to powdered high fat diet (VRF1 plus 20% lard), ground chocolate, ground peanuts and tap water at all times. The three different diets were contained in separate glass feeding jars with aluminium lids with a 3-4 cm hole cut in it to allow access to the food. Animals were housed in pairs for twelve weeks for the induction of obesity. Animals were then housed singly in polypropylene cages with wire grid floors to enable the food intake of each rat to be recorded. Polypropylene trays with cage pads were placed beneath each cage to detect any food spillage. Animals were accustomed to these new conditions (individual housing and the wire-grid floor cages) for at least 14 days before the start of the baseline readings.
(§3) Approximately a week before the start of the study, animals were weighed (to the nearest 0.1 g using an electronic top-pan balance) and allocated into 2 weight-matched treatment groups, each containing 10 animals. Following a 7 day baseline run-in period, during which the animals were dosed by the appropriate route (eg orally) once a day with vehicle (1% methylcellulose; 1 ml/kg) or the test drug, ie COMPOUND C (30 mg/kg po) once daily for 28 days.
Total ether-extractable fat in the freeze-dried samples was estimated by the Soxhlet principle using a Foss Soxtec HT2 system. The protocol employed was based on the manufacturer's recommendations for meat samples, although freeze-dried samples obviated the necessity for either a fat hydrolysis step or mixing the sample with sand to ensure efficient extraction.
Samples of approximately 1 g were accurately weighed into 26 mm x 60 mm cellulose extraction thimbles which were then plugged with approximately 0.8 g cotton wool. Sample fat was extracted into pre-weighed (including a few boiling chips) standard metal extraction cups using 70 ml of petroleum ether at 40-60°C, a circulator temperature of 115°C and a cooling flow rate of 2 l/min. A boiling stage of 25 min was employed, followed by a 40 min wash stage. A 10 min drying stage sufficed to remove ether from the extraction cups.
Percentage fat in the freeze-dried sample was calculated as follows: % fat = [100 × (final cup weight-initial cup weight)]/sample weight [formula]
Percentage fat in the original sample was calculated using the % water as follows: % fat in original sample = % fat × [(100-%water)/100] [formula]
Total protein in the freeze-dried samples was estimated using the Kjeldahl principle. A micro-Kjeldahl procedure was performed using a Foss 2012 digestion block and a Foss 2200 distilling unit. The protocol used was based on the manufacturer's recommendations for meat samples.
Approximately 0.3 g of freeze-dried sample was accurately weighed into 100 ml digestion tubes (Foss UK Ltd) in racks of 12 tubes. Each rack included at least one blank tube to determine a reagent blank. To each tube was added two Kjeltabs CQ and one Antifoam S tablet followed by 10 ml of 98% sulphuric acid. Samples were digested at 420°C for 1 h to convert protein into ammonium sulphate. Once tubes had cooled, free ammonia was liberated by the addition of an excess of 40% NaOH and steam distilled into 30 ml of 4% boric acid indicator solution. Ammonia was then determined by titration against volumetric grade 0.1 M HCl using a Brand 25 ml digital burette. Nitrogen and protein content of the samples were calculated as follows: % nitrogen = [(sample titration-blank titration) × 0.1401]/sample weight(g)%protein = % nitrogen × 6.25 [formula]
Total ash in the freeze-dried samples was estimated by determining the non-combustible ash remaining after firing samples at high temperatures using a Carbolite OAF 11/1 muffle furnace. […]

[4] = Plasma glycerol and triacylglycerol assay, female DIO Wistar rats (COMPOUND A, COMPOUND B); type: in vivo; settings: obese female Wistar rats; for reduction of plasma concentrations of triacylglycerol / reduction of plasma glycerol levels: 30 mg/kg po once daily for 28 days, vs vehicle
Experimental: as §2, with “250-300 g). The rats were housed in pairs in polypropylene cages with solid floors and sawdust bedding at a temperature of 21±4°C and 55±20% humidity.” for “250-300g).”, “aluminum” for “aluminium”
as §3, with “into 3” for “into 2”, “containing 9-10” for “containing 10”, “vehicle (0.5% hydroxy-propyl-methylcellulose [HPMC];” for “vehicle (1% methylcellulose;”, “COMPOUND A (10mg and 30 mg/kg po) and COMPOUND B (10 mg and 30” for “COMPOUND C (30”
Terminal blood samples via cardiac puncture were taken from the animals immediately after death into Sarstedt 4.5 ml lithium-heparin tubes (Cat No. 32.331). Tubes were then centrifuged at 1,500 g for 5 minutes at 4°C and the plasma removed and immediately frozen on dry ice (as 3 aliquots per sample in sealed Eppendorf tubes). Plasma samples were stored at -75°C until required for analysis. All determinations were performed on plasma samples that had been thawed only once.
Plasma triacylglycerol was determined by modification of a discrete assay kit (Sigma Triglyceride determination kit, Cat No. TR0100) to a 96-well format. The kit actually determines liberated glycerol following enzymic hydrolysis of triacylglycerol to free fatty acids and glycerol (1 mole glycerol per mole of triacylglycerol). For this reason, correction for the glycerol concentration originally present in the plasma is required. Plasma samples were, therefore, assayed in the absence (free plasma glycerol) or presence (total triacylglycerol) of lipoprotein lipase. Subtraction of free glycerol from total triacylglycerol concentration then derives the true triacylglycerol concentration.
A 2.5 mg/ml triolein equivalent glycerol standard was obtained from Sigma. The supplied Sigma mM conversion factor for this batch was 1.13 (ie 2.83 mM glycerol). A 10 mg/ml glycerol stock solution was prepared in saline and then diluted in saline to create a series of standard concentrations from 0.218 to 4.34 mM. Standards and plasma samples (undiluted) were pipetted into the 96-well plates as 10 µl additions in duplicate. Assay plates and reagents were preheated at 37°C and the reaction started by adding 200 µl of either the glycerol or total triacylglycerol reagent (reconstituted as per manufacturer's protocol) followed by incubation at 37°C for 5 minutes after which optical density at 540 nm was determined using a Molecular Devices VERSAmax tunable microplate reader. Optical density readings were then transferred to GraphPad Prism and unknown values extrapolated from a linear regression fit to the standard curve. The assay was linear up to the highest glycerol standard employed (4.34 mM). Subtraction of the glycerol concentration in the plasma samples from the total triacylglycerol concentration derived the true triacylglycerol concentration.

[5] = Plasma leptin assay, female DIO Wistar rats (COMPOUND A, COMPOUND B); type: in vivo; settings: obese female Wistar rats
Experimental: as §1, with “250-300 g). The rats were housed in pairs in polypropylene cages with solid floors and sawdust bedding at a temperature of 21±4°C and 55±20% humidity.” for “250-300g).”, “aluminum” for “aluminium”, “Polypropylene trays with cage pads were placed beneath each cage to detect any food spillage.” left out
Plasma leptin concentration was determined using Assay Designs rat leptin enzyme immunometric assay kits (Cat No. 900-015) according to the manufacturer's regular protocol. […]
Optical density at 450 nm was determined using a Molecular Devices VERSAmax tunable microplate reader and readings transferred to GraphPad Prism. […]

[6] = Plasma NEFA assay, female DIO Wistar rats (COMPOUND A, COMPOUND B); type: in vivo; settings: obese female Wistar rats; 30 mg/kg po once daily for 28 days
Experimental: as §1, with “250-300 g). The rats were housed in pairs in polypropylene cages with solid floors and sawdust bedding at a temperature of 21±4°C and 55±20% humidity.” for “250-300g).”, “aluminum” for “aluminium”, “Animals were housed in pairs for twelve weeks for the induction of obesity.” left out, “Polypropylene trays with cage pads were placed beneath each cage to detect any food spillage.” left out
Non-esterified (or free) fatty acids (NEFA) were determined by modification of a commercial clinical analyser assay kit (Wako NEFA C ACS-ACOD method) to a 96-well format. […] After exactly 10 minutes, 150 µl of reagent B was added and the plate incubated for a further 10 minutes after which optical density at 540 nm was determined using a Molecular Devices VERSAmax tunable microplate reader. […]

[7] = Feeding study in female DIO Wistar rats (COMPOUND A, COMPOUND B): body weight and food intake; type: in vivo; settings: dietary-induced obese female Wistar rats; 10 mg/kg po once daily; end of the 28 day drug treatment period
Experimental: as §2, with “250-300 g). The rats were housed in pairs in polypropylene cages with solid floors and sawdust bedding at a temperature of 21±4°C and 55±20% humidity.” for “250-300g).”, “aluminum” for “aluminium”
Approximately a week before the start of the study, animals were weighed (to the nearest 0.1 g using an electronic top-pan balance) and allocated into 3 weight-matched treatment groups, each containing 9-10 animals. […]
Food intake and body weight were measured once daily. […]

[8] = olanzapine treatment of patients; literature; cited from earlier work
[9] = 10 mg/kg po once daily for 28 days

Structure (SMILES): O=C(NN1CCCCC1)C1=NN(c2ccc(Cl)cc2Cl)C(c2ccc(Cl)cc2)C1 (racemic) [COMPOUND C, (rac)-N-piperidinyl-5-(4-chlorophenyl)-1-(2,4-dichlorophenyl)-4,5-dihydro-1H-pyrazole-3-carboxamide]
- reduction of plasma glycerol levels compared to the vehicle-treated control group [1]: 23.4%
- reduction of triacylglycerol levels compared to the vehicle-treated control group [1]: 37.2%
- plasma leptin concentrations, change compared to the vehicle-treated control group [2]: -48.2%
- decrease in absolute body fat compared to the vehicle-treated control group [3]: 57.7 g
- decrease in body fat as share of the total weight-loss observed [3]: 79.3%
- decrease in fat mass compared to the vehicle-treated control group [3]: 36.9%
- reduction of total carcass water compared to the vehicle-treated control [3]: 11.8 g
- percentage ash content ([3]; vehicle 2.77%): 3.26%
- percentage protein content ([3]; vehicle 15.5%): 17.1%
- fat content as a percentage of carcass weight ([3]; vehicle 31.9%): 24.2%
- percentage water content of the carcasses ([3]; vehicle 49.0%): 54.3%
- mean body fat mass ([3]; vehicle 156.3 g): 98.6 g
- reduction of final carcass weight ([3]; vs vehicle (473.0 g)): 72.8 g

Structure (SMILES): O=C(NN1CCCCC1)C1=NN(c2ccc(Cl)cc2Cl)[C@@H](c2ccc(Cl)cc2)C1 [COMPOUND A, (R)-N-piperidinyl-5-(4-chlorophenyl)-1-(2,4-dichlorophenyl)-4,5-dihydro-1H-pyrazole-3-carboxamide]
- plasma glycerol levels, effect vs vehicle [4, 9]: no significant effect
- plasma triacylglycerol concentrations, effect vs vehicle [4, 9]: no significant effect
- reduction of plasma concentrations of triacylglycerol [4]: 42.0%
- reduction of plasma glycerol levels [4]: 33.6%

Structure (SMILES): O=C(NN1CCCCC1)C1=NN(c2ccc(Cl)cc2Cl)[C@H](c2ccc(Cl)cc2)C1 [COMPOUND B, (S)-N-piperidinyl-5-(4-chlorophenyl)-1-(2,4-dichlorophenyl)-4,5-dihydro-1H-pyrazole-3-carboxamide]
- decrease of plasma leptin levels compared to the vehicle-treated control group [5, 9]: 13.7%
- decrease of plasma leptin levels compared to the vehicle-treated control group ([5]; 30 mg/kg po once daily for 28 days): 26.2%
- reduction of plasma concentrations of triacylglycerol [4]: 52.1%
- reduction of plasma glycerol levels [4]: 38.9%
- decrease of plasma NEFA levels compared to the vehicle-treated control group [6]: 24.4%
- body weights lower than those of the vehicle-treated controls [7]: 4.0%

Structure (SMILES): Cc1cc2c(s1)Nc1ccccc1N=C2N1CCN(C)CC1 [olanzapine]
- mean increase in body weight [8]: ~ 5 kg
